The source made the active and inactive calls.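 How the source made its calls: active means compounds whose fitted concentration for half of maximal LXR reporter activation EC50 is 10 µM or lower; inactive means the rest.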
Tested on: HEK293 Gal4-LXR tk-luc reporter, luminescence, 24 h
Assay: LXR agonists, Gal4 luciferase reporter, dose response, counter-screen for ssDAF-12 agonist project, cell-based, luminescence, HEK293, S. stercoralis campaign (AID 720737)

## CC(C)(C)C1CCC(=NNC(=S)Nc2cccnc2)CC1 (stereo unspecified)
  EC50: > 67.5 µM (inactive)

From PubChem BioAssay AID720737 (The Scripps Research Institute Molecular Screening Center, 2013)
